Tests used:
Format in all cases: toxicity, cell-based
U2OS = assay: Incucyte cell viability with U2OS; conditions: human, 10 µM, compound concentration 10 uM
HEK-293T = assay: Incucyte cell viability with HEK293T; conditions: human, 10 µM, compound concentration 10 uM
Fibroblast = assay: Incucyte cell viability with human fibroblast; conditions: 10 µM, compound concentration 10 uM
Further: unitless GR value; below 1 slowed growth and below 0 cell loss.

SMILES	Growth Rate (U2OS; 0 h, replicate number 2)	Growth Rate (U2OS; 6 h, replicate number 1)	Growth Rate (U2OS; 24 h, replicate number 1)	Growth Rate (HEK-293T; 6 h, replicate number 1)	Growth Rate (HEK-293T; 12 h, replicate number 1)	Growth Rate (HEK-293T; 18 h, replicate number 2)	Growth Rate (HEK-293T; 24 h, replicate number 2)	Growth Rate (Fibroblast; 6 h, replicate number 2)	Growth Rate (Fibroblast; 24 h, replicate number 2)	Growth Rate (U2OS; 12 h, replicate number 2)	Growth Rate (HEK-293T; 6 h, replicate number 2)	Growth Rate (HEK-293T; 12 h, replicate number 2)	Growth Rate (HEK-293T; 18 h, replicate number 1)	Growth Rate (HEK-293T; 24 h, replicate number 1)	Growth Rate (Fibroblast; 6 h, replicate number 1)	Growth Rate (Fibroblast; 12 h, replicate number 1)	Growth Rate (Fibroblast; 12 h, replicate number 2)	Growth Rate (Fibroblast; 18 h, replicate number 1)	Growth Rate (Fibroblast; 18 h, replicate number 2)	Growth Rate (Fibroblast; 24 h, replicate number 1)	further results
CCN(C)C(=O)c1ccc2c(c1)NC(=O)/C2=C(\NC1CCN(C)CC1)c1ccccc1	0.18	0.68	0.92	0.43	0.82	0.82	0.89	0.61	0.93												Growth Rate (U2OS; 0 h, replicate number 1): 0.88; Growth Rate (U2OS; 12 h, replicate number 1): 0.93; Growth Rate (Fibroblast; 0 h, replicate number 2): -0.73
CNc1nc(-c2cc(C(=O)N3CCN(Cc4ccc(Cl)cc4)CC3)c(Cl)cn2)cs1	-0.41	-0.33	0.37	0.91	0.62	0.14	0.23	-0.96	0.18	0.27	-0.49	0.01	0.62	0.69	-0.5	-0.19	-0.28	-0.06	-0.12	0.23	Growth Rate (U2OS; 0 h, replicate number 1): -0.54; Growth Rate (U2OS; 6 h, replicate number 2): -0.21; Growth Rate (U2OS; 12 h, replicate number 1): 0.1; Growth Rate (U2OS; 18 h, replicate number 1): 0.4; Growth Rate (U2OS; 18 h, replicate number 2): 0.37; Growth Rate (U2OS; 24 h, replicate number 2): 0.65; Growth Rate (Fibroblast; 0 h, replicate number 1): -1
COc1cc2nc(C)nc(N[C@H](C)c3cc(N)cc(C(F)(F)F)c3)c2cc1O[C@H]1CCOC1		0.51	0.83	0.91	0.88			-0.84	0.88						0.72		0.03		0.65		Growth Rate (U2OS; 0 h, replicate number 1): 0.75; Growth Rate (U2OS; 6 h, replicate number 2): 0.96; Growth Rate (U2OS; 18 h, replicate number 1): 0.93; Growth Rate (Fibroblast; 0 h, replicate number 1): -1
Cc1cc(-c2ccnc(Nc3cnn(C)c3)n2)ccc1CNC(=O)N1CC(OC(C)C)C1		0.99	0.89	0.37	0.72								0.79	0.98	0.47			0.97		0.75	Growth Rate (U2OS; 6 h, replicate number 2): 0.93; Growth Rate (U2OS; 12 h, replicate number 1): 0.8; Growth Rate (U2OS; 18 h, replicate number 1): 0.98; Growth Rate (Fibroblast; 0 h, replicate number 2): -0.87
CNC(=O)COc1cc2cc(Nc3nc(N4CCC(C(=O)N(C)C)CC4)ncc3Cl)cc(OC)c2n(C)c1=O	0.59	0.94	0.92	0.46	0.74	0.58	0.66	0.46	0.87	0.77	0.13	0.41	0.57	0.67							Growth Rate (U2OS; 18 h, replicate number 2): 0.87; Growth Rate (U2OS; 24 h, replicate number 2): 0.91; Growth Rate (Fibroblast; 0 h, replicate number 2): 0
Cn1cncc1-c1cn(-c2cccc(C(=O)Nc3cccc(C(F)(F)F)c3)c2)nn1	0.55	0.83	0.95	-0.32	-0.13	0.14	0.3	0.53	0.87	0.86	-0.41	0.03	0.06	0.24		0.87	0.77	0.87	0.64	0.48	Growth Rate (U2OS; 18 h, replicate number 2): 0.89
COc1cc(C(=O)NCCOCCOCCOCC(=O)N[C@H](C(=O)N2C[C@H](O)C[C@H]2C(=O)NCc2ccc(-c3scnc3C)cc2)C(C)(C)C)ccc1Nc1ncc(C(F)(F)F)c(Oc2cccc3c2C(=O)CC3)n1	0.63		0.61	0.29	-0.01	-0.01	-0.02	-0.8	0.84	0.87		0.02	0	0.03	0.15	0.45	0.43	0.28	0.85	0.14	Growth Rate (U2OS; 18 h, replicate number 2): 0.66; Growth Rate (U2OS; 24 h, replicate number 2): 0.68; Growth Rate (Fibroblast; 0 h, replicate number 2): 0.72
CSc1ccc(C[C@@H](C)C(=O)O)cc1Nc1nc(N2CC[C@H](N(C)C)C2)cc(C(F)F)c1C#N.O=C(O)C(F)(F)F		0.8		0.25	0.39	0.51	0.58		0.79			0.58	0.43	0.48	-0.12	0.16	0.34	0.21	0.8	0.3	Growth Rate (Fibroblast; 0 h, replicate number 1): -1
Cn1nc(-c2ccc(C(N)=O)cc2)c2ccccc2c1=O	0.98	0.58	0.96	0.11	0.75	0.55	0.74			0.97	0.45	0.4	0.73	0.79	0.25	0.99	0.65	0.84		1	Growth Rate (U2OS; 12 h, replicate number 1): 0.8; Growth Rate (U2OS; 18 h, replicate number 1): 0.93
Cc1cc(=O)oc2cc(NC(=O)[C@H](Cc3ccc(I)cc3)NC(=O)[C@H]3N[C@@H]4CC[C@H]3C4)ccc12.O=C(O)C(F)(F)F		0.26	0.88	-0.02	0.55			-0.13	0.61				0.61	0.76			0.19		0.35		Growth Rate (U2OS; 0 h, replicate number 1): -0.48; Growth Rate (U2OS; 12 h, replicate number 1): 0.89; Growth Rate (U2OS; 18 h, replicate number 1): 0.97; Growth Rate (U2OS; 18 h, replicate number 2): 0.92; Growth Rate (U2OS; 24 h, replicate number 2): 0.85; Growth Rate (Fibroblast; 0 h, replicate number 1): -1
O=C(Nc1cccc(C(F)(F)F)c1)c1cccc(-n2cc(-c3ccco3)nn2)c1	0.15	0.72	0.9	0.68	0.8					0.81	0.56	1	0.67	0.76	0.82					0.97	Growth Rate (U2OS; 12 h, replicate number 1): 0.78; Growth Rate (U2OS; 18 h, replicate number 2): 0.95; Growth Rate (Fibroblast; 0 h, replicate number 2): -0.94
CCOC(=O)/N=C(\N)c1ccc(OCc2cccc(COc3ccc(C(C)(C)c4ccc(OC(=O)OCC)cc4)cc3)c2)cc1		0.84		-0.49	0.04	0.08	0.11	-0.28	0.79		-0.42	-0.1	0.49	0.77	0.42	0.73	0.87	0.66	0.76	0.41	Growth Rate (Fibroblast; 0 h, replicate number 1): -0.98
CN1C(=O)Cc2ccc(-c3ccc(C[C@@H](C#N)NC(=O)[C@@H]4N[C@H]5CC[C@@H]4C5)c(F)c3)cc21		0.89		0.06	0.07	0.73	0.82				0.52	0.61	0.19	0.28	0.38	0.46	0.99	0.42		0.61	Growth Rate (U2OS; 0 h, replicate number 1): 0.98
CCN1C(=O)/C(=C(\NC2CCN(C)CC2)c2ccc3c(c2)OCO3)c2cc(C(C)=O)ccc21	-0.34	0.59	0.89	0.44	0.64	0.77		0.53	0.76	0.81	0.16	0.78	0.63	0.71	0.42	0.32	0.27	0.7	0.5	0.64	Growth Rate (U2OS; 0 h, replicate number 1): 0.46; Growth Rate (U2OS; 6 h, replicate number 2): 0.61; Growth Rate (U2OS; 24 h, replicate number 2): 0.95; Growth Rate (Fibroblast; 0 h, replicate number 1): -1

Reference: ChEMBL document CHEMBL5303304, “EUbOPEN Chemogenomics Library - IncuCyte” (2023)
